Patent US9493420B2, “Quinoline derivatives and uses thereof” (Portland State University, priority 2005, dated 2016)

Tests used:
P. falciparum strain W2 = settings: cited from earlier work; further: key: S = sensitive; R = resistant; S/R = intermediate level of resistance
[1] = test system: P. falciparum strain FCR3; settings: cited from earlier work; further: key: S = sensitive; R = resistant; S/R = intermediate level of resistance
P. falciparum strain D6 = settings: cited from earlier work; further: key: S = sensitive; R = resistant; S/R = intermediate level of resistance
P. falciparum strain Dd2 = settings: cited from earlier work; further: key: S = sensitive; R = resistant; S/R = intermediate level of resistance
[2] = test system: P. falciparum strain TM91C235; settings: cited from earlier work; further: key: S = sensitive; R = resistant; S/R = intermediate level of resistance
[3] = test system: D6 (CQ^S) P. falciparum strain; assay: In vitro fluorescence (Sybr Green I) growth inhibition assay, D6 strain; format: cell-based; settings: Plasmodium falciparum, D6; Table 13; growth inhibition; read-out: IC50 (nM) D6 (CQ^S)
Source text: (§1) One exemplary method for measuring inhibitory effects of RCQ compound in vitro has been reported by Smilkstein et al. (Antimicrob. Agents Chemother., 48(5):1803-1806, 2004). This method employs fluorescent detection of the level of parasitemia in cultured red blood cells and can be automated for high-throughput screening of antimalarial RCQs. This exemplary method allows the inhibitory agent (such as a RCQ) to be in contact with the parasite for an entire developmental cycle without purine starvation, which is in contrast to the traditional ^3H-hypoxanthine method (Desjardins et al., Antimicrob. Agents Chemother., 16(6):710-718, 1979). Briefly, to perform the Smilkstein et al. method, an initial parasitemia of approximately 0.2% is attained by adding uninfected red blood cells (RBCs) to a stock culture of Plasmodium sp.-infected RBCs. […] After a period of incubation (such as about 72 hours), a sufficient amount (e.g., 100 μL) of a fluorescent DNA binding dye-detergent mixture (e.g., Sybr Green I dye-detergent mixture) to lyse cells and bind to DNA is added to the reactions. Because uninfected RBCs have no DNA, only parasite DNA (in infected RBCs) is available for binding to the fluorescent dye (e.g., Sybr Green I). Samples are then incubated in the dark for a period of time (e.g., one hour), followed by measurement of levels of fluorescence. For Sybr Green I, excitation and emission wavelength are 485 and 530 nm, respectively. Fluorescence readings, which represent the amount of parasite DNA in the sample, can be plotted against the Log [drug] and fit to a curve by nonlinear regression to obtain the IC50 value for the tested compound.
(§2) An in vitro fluorescence assay for determining IC50 of antimalarial drugs was performed as previously described by Smilkstein et al. (Antimicrob. Agents Chemother., 48(5):1803-1806, 2004). This relatively low-cost procedure can be automated for high-throughput screening of the antimalarial activities of RCQs described herein. Advantageous, this method also allows the tested agent (e.g, a RCQ) to be in contact with the parasite for an entire developmental cycle without purine starvation (which occurs with the commonly used ^3H-hypoxanthine method; see, e.g., Desjardins et al., Antimicrob. Agents Chemother., 16, (6):[…], 1979).
(§3) Briefly, an initial parasitemia of approximately 0.2% was attained by addition of uninfected red blood cells to a stock culture of cells infected with Dd2 (CQ^R) or D6 (CQ^S) P. falciparum strains. A 10 mM RCQ_02 solution (in DMSO) was prepared. RCQ_02 (at a final concentration from 10^−11 to 10^−4 M) and infected red blood cells (at a final concentration of 2% (v/v)) were mixed in 100 μL samples in individual wells of a 96-well plate. Each sample was prepared in triplicate. A triplicate set of reactions containing CQ (instead of RCQ_02) was included as a control. After a 72 hour incubation period, Sybr Green I dye-detergent mixture (100 μL) was added to each reaction. The samples were further incubated for an hour in the dark, and then placed in a 96-well fluorescence plate reader (Gemini-EM, […]) and analyzed with excitation and emission wavelength bands at 485 and 530 nm, respectively. Fluorescence readings were plotted against the Log [drug], and curve fitting performed by nonlinear regression to find the IC50 value.

[4] = test system: Dd2 (CQ^R) P. falciparum strain; assay: In vitro fluorescence (Sybr Green I) growth inhibition assay, Dd2 strain; format: cell-based; settings: Plasmodium falciparum, DD2; Table 13; growth inhibition; read-out: IC50 (nM) Dd2 (CQ^R)
Source text: as §1, §2, §3

[5] = test system: mitogen-induced murine spleen lymphocytes; format: cell-based; settings: mouse spleen lymphocytes; for Cytotoxicity: LC50, 72 hours + 24 hours resazurin; for cytotoxicity values: Table 14
Method: Mouse spleen lymphocytes were isolated from C57B1/6J mice by teasing tissues on a metallic sieve screen. […] Two hundred (200) μl isolated cells were then seeded in separate wells of a 96-well flat-bottom tissue culture plate at a density of 2×10^5 cells per well. […] After 72 hours incubation in a humidified atmosphere at 37° C. and 5% CO2, a solution of resazurin PBS was added to a final concentration 10 μM, and the plates were returned to the incubator for another 24 hours. Resazurin is a substrate which changes color in response to metabolic activity (such as, living cells). […] LC50 values were determined from plots of florescence versus drug concentration using non-linear regression by Prism software.

[6] = test system: W2 (CQ^R) P. falciparum strain; assay: In vitro fluorescence (Sybr Green I) growth inhibition assay, W2 strain; format: cell-based; settings: Plasmodium falciparum, W2; Table 13; growth inhibition; read-out: IC50 (nM) W2 (CQ^R)

SMILES | Drug susceptibility, strain W2 (P. falciparum strain W2) | Drug susceptibility, strain FCR3 [1] | Drug susceptibility, strain D6 (P. falciparum strain D6) | Drug susceptibility, strain Dd2 (P. falciparum strain Dd2) | Drug susceptibility, strain TM91C235 [2] | IC50 [3] | IC50 [4] | Cytotoxicity [5] | cytotoxicity values [5] | IC50 [6]
CC1(C)N=C(N)N=C(N)N1c1ccc(Cl)cc1 [Cycloguanil] | R | S | S | S |  |  |  |  |  | 
OC(c1cc(C(F)(F)F)nc2c(C(F)(F)F)cccc12)C1CCCCN1 (stereo not drawn) [Mefloquine] | S | S | S/R | R | R |  |  |  |  | 
CCN1CCN(c2ccnc3cc(Cl)ccc23)CC1 [Q_38a] |  |  |  |  |  | 280 nM | 400 nM |  |  | 
C=C[C@H]1C[N@@]2CC[C@H]1C[C@H]2[C@H](O)c1ccnc2ccc(OC)cc12 [Quinine] | R | S | S | R | R |  |  |  |  | 
Clc1ccc2c(NCCCNCCN(c3ccccc3)c3ccccc3)ccnc2c1 [RCQ_05(desMe)] |  |  |  |  |  | 36 nM | 27 nM |  |  | 
Clc1ccc2c(NCCCNCCCN(Cc3ccccc3)Cc3ccccc3)ccnc2c1 [RCQ_22] |  |  |  |  |  | 45 nM | 79 nM | 700 nM | 700 nM | 
Clc1ccc2c(NCCCNCCCCN(Cc3ccccc3)Cc3ccccc3)ccnc2c1 [RCQ_26] |  |  |  |  |  | 7.6 nM | 10.6 nM |  |  | 
Clc1ccc(C(c2ccccc2)N2CCN(CCNc3ccnc4cc(Cl)ccc34)CC2)cc1 (stereo not drawn) [RCQ_32] |  |  |  |  |  | 2.6 nM | 3.4 nM | 1400 nM |  | 3.4 nM
CN(CCCN1c2ccccc2CCc2ccccc21)CCNc1ccnc2cc(Cl)ccc12 [RCQ_33] |  |  |  |  |  | 8.1 nM | 9.3 nM | 1400 nM |  | 9.3 nM
Clc1ccc2c(NCCCN3CCN(C(c4ccccc4)c4ccccc4)CC3)ccnc2c1 [RCQ_34] |  |  |  |  |  | 2.4 nM | 3.7 nM | 1100 nM |  | 2.5 nM
Clc1ccc(C(c2ccccc2)N2CCN(CCCNc3ccnc4cc(Cl)ccc34)CC2)cc1 (stereo not drawn) [RCQ_35] |  |  |  |  |  | 4 nM | 6 nM | 800 nM |  | 4 nM
Clc1ccc2c(NCCN3CCCN(C(c4ccccc4)c4ccccc4)CC3)ccnc2c1 [RCQ_36] |  |  |  |  |  | 11.7 nM | 98 nM | 5300 nM | 5300 nM | 
Fc1ccc(C(c2ccc(F)cc2)N2CCN(CCCNc3ccnc4cc(Cl)ccc34)CC2)cc1 [RCQ_37F2] |  |  |  |  |  | 15 nM | 19 nM | 4100 nM |  | 
Clc1ccc2c(NCCCN3CCC(=C4c5ccccc5C=Cc5ccccc54)CC3)ccnc2c1 [RCQ_42] |  |  |  |  |  | 2.1 nM | 1.8 nM | 1100 nM |  | 
Clc1ccc2c(NCCN3CCCN(C4c5ccccc5-c5ccccc54)CC3)ccnc2c1 [RCQ_72] |  |  |  |  |  | 9.2 nM | 9.6 nM | 2500 nM |  | 
Clc1ccc(C(c2ccccc2)N2CCCN(CCCNc3ccnc4cc(Cl)ccc34)CC2)cc1 (stereo not drawn) [RCQ_74] |  |  |  |  |  | 15 nM | 9.8 nM | 900 nM |  | 
Clc1ccc2c(N3CCN(CCN(Cc4ccccc4)Cc4ccccc4)CC3)ccnc2c1 [RCQ_351] |  |  |  |  |  | 141 nM | 164 nM |  |  | 
COc1ncnc(NS(=O)(=O)c2ccc(N)cc2)c1OC [Sulfadoxine] | R | S | S | S | R |  |  |  |  | 
